# Source: article PMC2770896, “Inhibition of Neuraminidase Inhibitor-Resistant Influenza Virus by DAS181, a Novel Sialidase Fusion Protein” (PLoS ONE, 2009)
# Like-named read-outs stand apart in the source and are kept apart here.
# Columns and labels:
# [1] = system: Human renal cortical epithelial cells; assay: Primary cell cytotoxicity, MTS assay; assay type: cell-based; conditions: 24 hrs or 72 hrs exposure, DAS181 various concentrations, 0.2% thimerosol, 1 mM CdCl2
# From the text: (§1) Primary cryopreserved human renal cells (Proximal Tubule Epethelial and Cortical Epethelial cells) were thawed, plated, and propagated according to Cambrex’s recommended protocol. Both renal cell lines were thawed and plated at a seeding density of 2500 cells/cm^2 with Renal Epethelial Basal Medium (REBM) supplemented with Cambrex REGM SingleQuots® (Cambrex CC-4127); which includes recombinant human epidermal growth factor, insulin, GA-1000, 0.5% Fetal Bovine Serum, hydrocortisone, transferrin, epinephrine, and triiodothyronine (T3). The cells were allowed to adhere and equilibrate for 24 hours at 37°C with 5% CO2. […] All the renal cells were further subcultured and seeded into 10 tissue culture-coated 24 well plates per cell line at a seeding density of 2.5x10^3 cells/cm^2. Once the cells reached approximately 70% confluency the 24 well plates were used in cytotoxicity experiments using the REBM supplemented with the REGM SingleQuots®.
# (§2) On Day 0 the cell media supernatants were initially collected for baseline controls, before adding fresh media supplemented with either PBS, DAS181 (indicated concentrations), or thimerosal (0.2%) or CdCl^2 (1mM) to serve as positive controls for cytotoxicity. All treatment groups were done in triplicate. Treatments were left on for either 24 hrs or 72 hrs. Subsequently, for the 24 hr exposure conditions fresh media without test article was added to all the wells every 24 hours on days 1-3 (24-72 hours post-treatment); a subset of the wells were used for MTS assay each day. For the 72 hr exposure conditions the media was only changed at 72 hrs, immediately prior to MTS assay. Renal cell media interfered with Lactate Dehydrogenase (LDH) and Alkaline Phosphatase (ALP) assays so these were not performed.
# (§3) At each endpoint (24, 48, or 72 hrs) the old media was first replaced with fresh warm media (500uL/well) and the samples were then tested for cell viability using the CellTiter 96® Aqueous Non-Radioactive Cell Proliferation Assay (MTS) kit (Promega, Madison, WI). […] 100μL of each sample was then added to a 96 well plate and read for absorbance at 490 nm. A 1:5 dilution of MTS solution in growth media alone was used as the background. For data analysis, background values were subtracted from all sample values. Values were then normalized using the vehicle control as 100%. Each sample was compared to the vehicle control, via ANOVA with Bonferroni post-test, to determine if there was a statistically significant change in cell viability.
# [2] = system: Human renal proximal tubule cells; assay: Primary cell cytotoxicity, MTS assay; assay type: cell-based; conditions: 24 hrs or 72 hrs exposure, DAS181 various concentrations, 0.2% thimerosol, 1 mM CdCl2
# From the text: as §1, §2, §3
# A/St.Louis/792/09 = assay type: cell-based, IFV A (H1N1)
# A/St.Louis/746/09 = assay type: cell-based, IFV A (H1N1)
# A/St.Louis/775/09 = assay type: cell-based, IFV A (H1N1)
# A/St.Louis/790/09 = assay type: cell-based, IFV A (H1N1)
# A/NewJersey/15/07 = assay type: cell-based, IFV A (H1N1)
# A/St.Louis/764/09 = assay type: cell-based, IFV A (H1N1)
# [3] = molecular target: NA enzymatic activity of A/St.Louis/746/09 (Influenza A virus, UniProt D0FH50); assay: Chemiluminescent neuraminidase activity inhibition (NI) assay; assay type: biochemical, IFV A (H1N1); conditions: for R/S: NI assay; for IC50: mean of triplicate analysis
# Protocol: (§4) The chemiluminescent neuraminidase activity inhibition (NI) assay was conducted using a commercially available kit, NA-Star (Applied Biosystems, Foster City, CA) as previously described. Oseltamivir carboxylate and zanamivir were used at 10 half-log dilutions (0.03 to 1000 nM). Values shown represent mean of triplicate analysis.
# [4] = molecular target: NA enzymatic activity of A/Hawaii/21/2007 (Influenza A virus (H1N1), UniProt B1AGI9); assay: as above; assay type: biochemical, IFV A (H1N1); conditions: for R/S: A/Hawaii/21/2007, NI assay
# Protocol: as §4
# [5] = molecular target: NA enzymatic activity of A/St.Louis/790/09 (Influenza A virus, UniProt D0FH54); assay: as above; assay type: biochemical, IFV A (H1N1); conditions: for R/S: NI assay; for IC50: mean of triplicate analysis
# Protocol: as §4
# [6] = molecular target: NA enzymatic activity of A/St.Louis/539/09 (Influenza A virus, UniProt D0FH47); assay: as above; assay type: biochemical, IFV A (H1N1); conditions: for R/S: NI assay; for IC50: mean of triplicate analysis
# Protocol: as §4
# [7] = molecular target: NA enzymatic activity of A/St.Louis/764/09 (Influenza A virus, UniProt D0FH52); assay: as above; assay type: biochemical, IFV A (H1N1); conditions: for R/S: NI assay; for IC50: mean of triplicate analysis
# Protocol: as §4
# [8] = molecular target: NA enzymatic activity of A/St.Louis/775/09 (Influenza A virus, UniProt D0FH53); assay: as above; assay type: biochemical, IFV A (H1N1); conditions: for R/S: NI assay; for IC50: mean of triplicate analysis
# Protocol: as §4
# [9] = molecular target: NA enzymatic activity of A/St.Louis/630/09 (Influenza A virus, UniProt D0FH48); assay: as above; assay type: biochemical, IFV A (H1N1); conditions: for R/S: NI assay; for IC50: mean of triplicate analysis
# Protocol: as §4
# [10] = molecular target: NA enzymatic activity of A/St.Louis/792/09 (Influenza A virus, UniProt D0FH55); assay: as above; assay type: biochemical, IFV A (H1N1); conditions: for R/S: NI assay; for IC50: mean of triplicate analysis
# Protocol: as §4
# [11] = molecular target: NA enzymatic activity of A/St.Louis/690/09 (Influenza A virus, UniProt D0FH49); assay: as above; assay type: biochemical, IFV A (H1N1); conditions: for R/S: NI assay; for IC50: mean of triplicate analysis
# Protocol: as §4
# [12] = molecular target: NA enzymatic activity of A/Georgia/17/2006 WT (Influenza A virus (H1N1), UniProt A7UPL3); assay: as above; assay type: biochemical; conditions: for IC50: A/Georgia/17/2006 WT reference virus, mean of triplicate analysis; for R/S: A/Georgia/17/2006 WT, NI assay
# Protocol: as §4
# A/HongKong/2765/04 = assay type: cell-based, IFV A (H1N1)
# A/St.Louis/539/09 = assay type: cell-based, IFV A (H1N1)
# A/Hawaii/21/07 = assay type: cell-based, IFV A (H1N1)
# A/St.Louis/690/09 = assay type: cell-based, IFV A (H1N1)
# A/St.Louis/630/09 = assay type: cell-based, IFV A (H1N1)
# A/HongKong/2637/04 = assay type: cell-based, IFV A (H1N1)
# A/St.Louis/758/09 = assay type: cell-based, IFV A (H1N1)
compound,measurement,setting,value
"[Cl][Cd][Cl] [CdCl2, cadmium chloride]",Cell viability (MTS) vs PBS,[1],significant reduction in cell viability
same,Cell viability (MTS) vs PBS,[2],significant reduction in cell viability
"CCC(CC)O[C@@H]1C=C(C(=O)O)C[C@H](N)[C@H]1NC(C)=O [oseltamivir, oseltamivir carboxylate]",EC50,A/St.Louis/792/09; read-out: EC50,> 400000 nM
same,EC50,A/St.Louis/746/09; read-out: EC50,> 400000 nM
same,EC50,A/St.Louis/775/09; read-out: EC50,> 320000 nM
same,EC50,A/St.Louis/790/09; read-out: EC50,> 304000 nM
same,EC50,A/NewJersey/15/07; read-out: EC50,> 400000 nM
same,EC50,A/St.Louis/764/09; read-out: EC50,> 400000 nM
same,R/S,[3],R
same,IC50,[3],89.9 nM
same,R/S,[4],R
same,IC50,"[4]; A/Hawaii/21/2007 reference virus, mean of triplicate analysis",110 nM
same,R/S,[5],R
same,IC50,[5],87.8 nM
same,R/S,[6],R
same,IC50,[6],84.9 nM
same,R/S,[7],R
same,IC50,[7],103 nM
same,R/S,[8],R
same,IC50,[8],91.8 nM
same,R/S,[9],R
same,IC50,[9],224 nM
same,R/S,[10],R
same,IC50,[10],91.5 nM
same,R/S,[11],R
same,IC50,[11],178 nM
same,IC50,[12],0.37 nM
same,R/S,[12],S
same,EC50,A/HongKong/2765/04; read-out: EC50,2920 ± 1000 nM
same,EC50,A/St.Louis/539/09; read-out: EC50,> 400000 nM
same,EC50,A/Hawaii/21/07; read-out: EC50,> 285000 nM
same,EC50,A/St.Louis/690/09; read-out: EC50,> 400000 nM
same,EC50,A/St.Louis/630/09; read-out: EC50,> 400000 nM
same,EC50,A/HongKong/2637/04; read-out: EC50,3270 ± 1320 nM
same,EC50,A/St.Louis/758/09; read-out: EC50,> 400000 nM
C[CH2][Hg][S]c1ccccc1C(=O)[O-].[Na+] [thimerosol],Cell viability (MTS) vs PBS,[1],significant reduction in cell viability
same,Cell viability (MTS) vs PBS,[2],significant reduction in cell viability
CC(=O)N[C@H]1[C@H]([C@H](O)[C@H](O)CO)OC(C(=O)O)=C[C@@H]1N=C(N)N [zanamivir],EC50,A/St.Louis/792/09; read-out: EC50,> 156000 nM
same,EC50,A/St.Louis/792/09; read-out: EC50 Zanamivir,> 156000 nM
same,EC50,A/St.Louis/746/09; read-out: EC50,1960 ± 420 nM
same,EC50,A/St.Louis/746/09; read-out: EC50 Zanamivir,1960 ± 420 nM
same,EC50,A/St.Louis/775/09; read-out: EC50,1200 ± 360 nM
same,EC50,A/St.Louis/775/09; read-out: EC50 Zanamivir,1200 ± 360 nM
same,EC50,A/St.Louis/790/09; read-out: EC50,3120 ± 1830 nM
same,EC50,A/St.Louis/790/09; read-out: EC50 Zanamivir,3120 ± 1830 nM
same,EC50,A/NewJersey/15/07; read-out: EC50,7020 ± 2460 nM
same,EC50,A/NewJersey/15/07; read-out: EC50 Zanamivir,7020 ± 2460 nM
same,EC50,A/St.Louis/764/09; read-out: EC50,> 273000 nM
same,EC50,A/St.Louis/764/09; read-out: EC50 Zanamivir,> 273000 nM
same,R/S,[3],S
same,IC50,[3],0.3 nM
same,R/S,[4],S
same,R/S,[5],S
same,IC50,[5],0.29 nM
same,R/S,[6],S
same,IC50,[6],0.28 nM
same,R/S,[7],S
same,IC50,[7],0.3 nM
same,R/S,[8],S
same,IC50,[8],0.33 nM
same,R/S,[9],S
same,IC50,[9],0.48 nM
same,R/S,[10],S
same,IC50,[10],0.28 nM
same,R/S,[11],S
same,IC50,[11],0.44 nM
same,IC50,[12],0.44 nM
same,R/S,[12],S
same,EC50,A/HongKong/2765/04; read-out: EC50,4170 ± 530 nM
same,EC50,A/HongKong/2765/04; read-out: EC50 Zanamivir,4170 ± 530 nM
same,EC50,A/St.Louis/539/09; read-out: EC50,> 332000 nM
same,EC50,A/St.Louis/539/09; read-out: EC50 Zanamivir,> 332000 nM
same,EC50,A/Hawaii/21/07; read-out: EC50,45000 ± 22500 nM
same,EC50,A/Hawaii/21/07; read-out: EC50 Zanamivir,45000 ± 22500 nM
same,EC50,A/St.Louis/690/09; read-out: EC50,> 182000 nM
same,EC50,A/St.Louis/690/09; read-out: EC50 Zanamivir,> 182000 nM
same,EC50,A/St.Louis/630/09; read-out: EC50,62100 ± 34800 nM
same,EC50,A/St.Louis/630/09; read-out: EC50 Zanamivir,62100 ± 34800 nM
same,EC50,A/HongKong/2637/04; read-out: EC50,1820 ± 460 nM
same,EC50,A/HongKong/2637/04; read-out: EC50 Zanamivir,1820 ± 460 nM
same,EC50,A/St.Louis/758/09; read-out: EC50,7060 ± 2840 nM
same,EC50,A/St.Louis/758/09; read-out: EC50 Zanamivir,7060 ± 2840 nM
